Data: PMC10143232, “Dihydropyrimidone Derivatives as Thymidine Phosphorylase Inhibitors: Inhibition Kinetics, Cytotoxicity, and Molecular Docking” (Molecules, 2023)
Structures can show the parent of a compound that is named as a salt. Where two headings read alike, the source gives them in different places.

How the values were obtained:
[1] = biological target: T1, Thymidine phosphorylase (TP) (Escherichia coli, UniProt P07650); assay: Thymidine phosphorylase inhibition assay (spectrophotometric, 290 nm); format: biochemical, E. coli; settings: for IC50 / Thymidine Phosphorylase Inhibitory Activity % Inhibition / TP inhibitory activity (in words): E. coli TP; for IC50: n = 3, NA: not active, read-out: Thymidine Phosphorylase Inhibitory Activity IC50 ± SEM; for inhibition at 500 µM / Thymidine Phosphorylase Inhibitory Activity % Inhibition: test compound 10 µL of 0.5 mM in 200 µL, thymidine substrate, 30 °C, pH 7.0; for TP inhibitory activity (in words): inactive = less than 50% inhibition
T1 construct: purchased Sigma Aldrich, USA
T1 sequence (P07650 whole entry): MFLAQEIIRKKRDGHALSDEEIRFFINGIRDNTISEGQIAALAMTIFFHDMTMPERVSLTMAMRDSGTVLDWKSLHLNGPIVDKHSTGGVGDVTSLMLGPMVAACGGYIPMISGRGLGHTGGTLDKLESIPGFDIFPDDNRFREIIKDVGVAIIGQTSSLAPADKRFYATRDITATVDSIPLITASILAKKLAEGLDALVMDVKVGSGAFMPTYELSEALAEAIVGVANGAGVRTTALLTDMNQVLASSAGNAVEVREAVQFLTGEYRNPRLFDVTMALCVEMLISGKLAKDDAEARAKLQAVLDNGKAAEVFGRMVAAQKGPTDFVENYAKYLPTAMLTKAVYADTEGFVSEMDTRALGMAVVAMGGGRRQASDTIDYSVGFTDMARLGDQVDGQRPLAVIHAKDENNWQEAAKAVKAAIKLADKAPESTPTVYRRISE
Experimental: Thymidine phosphorylase (source: E. coli, EC Number 2.4.2.4), thymidine (substrate), and potassium phosphate monobasic (as buffer) were acquired from Sigma Aldrich, USA. […] Dimethylsulfoxide (DMSO), used as a solvent, was obtained from Fisher Scientific, Schwerte, Germany.
Reaction was performed in 96-well plates and in triplicates. The 200 µL reaction mixture was comprised of 10 µL of the test compound (0.5 mM; dissolved in DMSO), 150 µL of potassium phosphate buffer (pH 7.0, 50 mM), and 20 µL of TP enzyme (0.058 unit/well). The 96-well plate containing all these reagents was then incubated at 30 °C for 10 min.
SoftMax Pro 4.8 software (Molecular Devices, San Jose, CA, USA) was used to analyse the results.
EZ-FIT, enzyme kinetics software (Perrella Scientific, Inc., Amherst, GA, USA) was used to calculate the IC50 values. In order to analyse the kinetic parameter, Grafit version 7.0 (Erithacus Software Ltd., Horley, UK) was used.

MTT cytotoxicity assay = format: cell-based; settings: 3T3 mouse fibroblast cells, 48 h, test compounds 1 to 30 µM, NC: non-cytotoxic; for viability at 48 h: read-out: Cytotoxicity Studies Cell Viability (%)
Experimental: Cytotoxicity of active compounds were evaluated employing a standard MTT calorimetric assay. Mouse fibroblast (3T3 cell line) acquired from American Type Culture Collection (ATCC), Virginia, USA, was cultured in DMEM (Dulbecco’s modified eagle medium). In total, 5% FBS (fetal bovine serum), penicillin (100 IU/mL), and streptomycin ([…]) were then added to the medium in […] flasks, and kept in a CO2 incubator at 37 °C. The harvested cell was then diluted with a specific medium. Haemocytometer was used for the quantification of cells. After that, the culture of cell having concentration of 5x104 (cells/mL) was prepared, inoculated into 96-well plates (100 µL/well), and then incubated overnight. After incubation, the old medium was removed, and fresh medium (200 µL) was added. Then different concentrations of test compounds (ranging from 1 to 30 µM) were added. After incubation of 48 h, each well received 200 µL of MTT dye (0.5 mg/mL), and further incubated for a duration of 4 h. After 4 h, 100 µL of DMSO was introduced into each well of the 96-well plate. The reduction of MTT to formazan was measured by recording absorbance at 540 nm with the help of a microplate reader (SpectraMax 384, Molecular Devices, San Jose, CA, USA).

[2] = pH 7, E. coli TP, read-out: Thymidine Phosphorylase Inhibitory Activity % Inhibition

Structure (SMILES)	IC50 [1]	inhibition at 500 µM [1, 2]	viability at 48 h (MTT cytotoxicity assay)	other results
CCOc1ccc(C2NC(=O)NC(C)=C2C(=O)OC)cc1 (centres unmarked) [Compound 2, Methyl 4-(4-ethoxyphenyl)-6-methyl-2-oxo-1,2,3,4-tetrahydropyrimidine-5-carboxylate]	389 ± 6.2 µM	78.2%	67%	
COC(=O)C1=C(C)NC(=O)NC1c1ccc2ccccc2c1 (centres unmarked) [Compound 3, Methyl 6-methyl-4-(naphthalen-2-yl)-2-oxo-1,2,3,4-tetrahydropyrimidine-5-carboxylate]				Thymidine Phosphorylase Inhibitory Activity % Inhibition [1]: 38.1%
CCC1NC(=O)NC(C)=C1C(=O)OC (centres unmarked) [Compound 4, Methyl 4-ethyl-6-methyl-2-oxo-1,2,3,4-tetrahydropyrimidine-5-carboxylate]		46.8%		
COC(=O)C1=C(C)NC(=O)NC1c1ccc(OC)cc1 (centres unmarked) [Compound 5, Methyl 4-(4-methoxyphenyl)-6-methyl-2-oxo-1,2,3,4-tetrahydropyrimidine-5-carboxylate]	387.4 ± 2 µM	52.9%	72%	
COC(=O)C1=C(C)NC(=O)NC1c1ccccc1Cl (centres unmarked) [Compound 6, Methyl 4-(2-chlorophenyl)-6-methyl-2-oxo-1,2,3,4-tetrahydropyrimidine-5-carboxylate]		-65.3%		TP inhibitory activity (in words) [1]: inactive
COC(=O)C1=C(C)NC(=O)NC1c1ccccc1OC (centres unmarked) [Compound 7, Methyl 4-(2-methoxyphenyl)-6-methyl-2-oxo-1,2,3,4-tetrahydropyrimidine-5-carboxylate]		-19.3%		
COC(=O)C1=C(C)NC(=O)NC1c1ccc2ccccc2c1 (centres unmarked) [Compound 8, Methyl 6-methyl-4-(naphthalen-2-yl)-2-oxo-1,2,3,4-tetrahydropyrimidine-5-carboxylate]				Thymidine Phosphorylase Inhibitory Activity % Inhibition [1]: −10.3%
COC(=O)C1=C(C)NC(=O)NC1c1ccco1 (centres unmarked) [Compound 9, Methyl 4-(furan-2-yl)-6-methyl-2-oxo-1,2,3,4-tetrahydropyrimidine-5-carboxylate]	373.6 ± 2.2 µM	78.9%	72%	
CCCCC1NC(=O)NC(C)=C1C(=O)OC (centres unmarked) [Compound 10, Methyl 4-butyl-6-methyl-2-oxo-1,2,3,4-tetrahydropyrimidine-5-carboxylate]	389 ± 0.6 µM	92.7%	66%	
COC(=O)C1=C(C)NC(=O)NC1c1ccc(C)o1 (centres unmarked) [Compound 11, Methyl 6-methyl-4-(5-methylfuran-2-yl)-2-oxo-1,2,3,4-tetrahydropyrimidine-5-carboxylate]	386 ± 0.6 µM	76.9%	77%	
COC(=O)C1=C(C)NC(=O)NC1c1ccc(O)cc1 (centres unmarked) [Compound 13, Methyl 4-(4-hydroxyphenyl)-6-methyl-2-oxo-1,2,3,4-tetrahydropyrimidine-5-carboxylate]	448.9 ± 4.1 µM	56.2%	72%	
COC(=O)C1=C(C)NC(=O)NC1c1ccc(OC)cc1F (centres unmarked) [Compound 14, Methyl 4-(2-fluoro-4-methoxyphenyl)-6-methyl-2-oxo-1,2,3,4-tetrahydropyrimidine-5-carboxylate]	397.1 ± 0.1 µM	68.4%	71%	
COC(=O)C1=C(C)NC(=O)NC1c1cccc(O)c1 (centres unmarked) [Compound 15, Methyl 4-(3-hydroxyphenyl)-6-methyl-2-oxo-1,2,3,4-tetrahydropyrimidine-5-carboxylate]		38.9%		
COC(=O)C1=C(C)NC(=O)NC1c1ccc(F)c(OC)c1 (centres unmarked) [Compound 16, Methyl 4-(4-fluoro-3-methoxyphenyl)-6-methyl-2-oxo-1,2,3,4-tetrahydropyrimidine-5-carboxylate]		47.8%		
COC(=O)C1=C(C)NC(=O)NC1c1cc(OC)ccc1OC (centres unmarked) [Compound 17, Methyl 4-(2,5-dimethoxyphenyl)-6-methyl-2-oxo-1,2,3,4-tetrahydropyrimidine-5-carboxylate]		46.5%		
COC(=O)C1=C(C)NC(=O)NC1c1c(Cl)cccc1Cl (centres unmarked) [Compound 18, Methyl 4-(2,6-dichlorophenyl)-6-methyl-2-oxo-1,2,3,4-tetrahydropyrimidine-5-carboxylate]		-15.4%		TP inhibitory activity (in words) [1]: inactive
COC(=O)C1=C(C)NC(=O)NC1c1ccc(C(C)C)cc1 (centres unmarked) [Compound 19, Methyl 4-(4-isopropylphenyl)-6-methyl-2-oxo-1,2,3,4-tetrahydropyrimidine-5-carboxylate]		-18.5%		
COC(=O)C1=C(C)NC(=O)NC1c1cccc(OC)c1OC (centres unmarked) [Compound 20, Methyl 4-(2,3-dimethoxyphenyl)-6-methyl-2-oxo-1,2,3,4-tetrahydropyrimidine-5-carboxylate]	414.7 ± 1.6 µM	67.8%	62%	
COC(=O)C1=C(C)NC(=O)NC1CC(C)C (centres unmarked) [Compound 21, Methyl 4-isobutyl-6-methyl-2-oxo-1,2,3,4-tetrahydropyrimidine-5-carboxylate]	345.4 ± 0.5 µM	90.7%	55%	
COC(=O)C1=C(C)NC(=O)NC1c1cc(Br)c(OC)c(OC)c1 (centres unmarked) [Compound 22, Methyl 4-(3-bromo-4,5-dimethoxyphenyl)-6-methyl-2-oxo-1,2,3,4-tetrahydropyrimidine-5-carboxylate]	394 ± 4.3 µM	61.9%	76%	
COC(=O)C1=C(C)NC(=O)NC1c1ccc(OC)c(OCc2ccccc2)c1 (centres unmarked) [Compound 23, Methyl 4-(3-(benzyloxy)-4-methoxyphenyl)-6-methyl-2-oxo-1,2,3,4-tetrahydropyrimidine-5-carboxylate]		7.5%		
COC(=O)C1=C(C)NC(=O)NC1c1ccsc1 (centres unmarked) [Compound 24, Methyl 6-methyl-2-oxo-4-(thiophen-3-yl)-1,2,3,4-tetrahydropyrimidine-5-carboxylate]	350.6 ± 0.6 µM	79.6%	82%	
COC(=O)C1=C(C)NC(=O)NC1c1ccc(OC)c(OC)c1 (centres unmarked) [Compound 25, Methyl 4-(3,4-dimethoxyphenyl)-6-methyl-2-oxo-1,2,3,4-tetrahydropyrimidine-5-carboxylate]	424.1 ± 0.9 µM	59%	99%	
COC(=O)C1=C(C)NC(=O)NC1c1cccs1 (centres unmarked) [Compound 27, Methyl 6-methyl-2-oxo-4-(thiophen-2-yl)-1,2,3,4-tetrahydropyrimidine-5-carboxylate]		47.1%		
COC(=O)C1=C(C)NC(=O)NC1c1cccc(OCc2ccccc2)c1 (centres unmarked) [Compound 31, Methyl 4-(3-(benzyloxy)phenyl)-6-methyl-2-oxo-1,2,3,4-tetrahydropyrimidine-5-carboxylate]		-41.9%		
COC(=O)C1=C(C)NC(=O)NC1c1ccccc1F (centres unmarked) [Compound 35, Methyl 4-(2-fluorophenyl)-6-methyl-2-oxo-1,2,3,4-tetrahydropyrimidine-5-carboxylate]		9.6%		TP inhibitory activity (in words) [1]: activity was lost
COC(=O)C1=C(C)NC(=O)NC1c1ccccc1OCc1ccccc1 (centres unmarked) [Compound 36, Methyl 4-(2-(benzyloxy)phenyl)-6-methyl-2-oxo-1,2,3,4-tetrahydropyrimidine-5-carboxylate]		5.3%		
COC(=O)C1=C(C)NC(=O)NC1c1ccc(Cl)cc1Cl (centres unmarked) [Compound 39, Methyl 4-(2,4-dichlorophenyl)-6-methyl-2-oxo-1,2,3,4-tetrahydropyrimidine-5-carboxylate]		-1.8%		TP inhibitory activity (in words) [1]: inactive
C[C@@H]1C[C@@H]([C@H](O)CC2CC(=O)NC(=O)C2)C(=O)[C@@H](C)C1 [Cycloheximide, reference compound]			30%	IC50 at 48 h (MTT cytotoxicity assay; read-out: Cytotoxicity Studies IC50 ± SD): 0.8 ± 0.2 µM
N=C1CCCN1Cc1[nH]c(=O)[nH]c(=O)c1Cl [Tipiracil-HCl, reference compound]				inhibition at 500 µM ([1]; pH 7, read-out: Thymidine Phosphorylase Inhibitory Activity % Inhibition, E. coli TP): 92%
